Source: patent publication US10583106B2, “Method of treating cancer by oral administration of acetate composition comprising magnesium acetate, calcium acetate or ethylacetate” (priority 2015, dated 2020)
Like-named read-outs stand apart in the source and are kept apart here.

Experiments:
X-inactivation = conditions: cited from earlier work
FMR1 mRNA = conditions: Baicsi, 2008; cited from earlier work
MeCP2^tm1.1Jae mice = tested on: MeCP2^tm1.1Jae mice; parameters: key to Lifespan / Normal breathing / Motor function / Motility: ↑: increased; ↓: decreased; conditions: cited from earlier work
histone acetylation = conditions: brief description of the histone acetylation mechanism; cited from earlier work
MeCP2^1lox mice = tested on: MeCP2^1lox mice; parameters: key: ↑: increased; ↓: decreased; conditions: Schaevitz, 2012, cited from earlier work
Non-Hodgkin's Lymphoma = conditions: continued regime of DCA and thiamine; cited from earlier work
[1] = radioactive DCA; exhaled in breath; cited from earlier work
[2] = Flavin, 2010; cited from earlier work
MeCP2^tm1.1Bird mice = tested on: MeCP2^tm1.1Bird mice; parameters: key: ↑: increased; ↓: decreased; conditions: cited from earlier work
Human females = tested on: Human females; parameters: key to Apneias: ↑: increased; ↓: decreased; conditions: cited from earlier work; for Apneias: Krajnc, 2013, Khwaja, 2014
[3] = tested on: Fragile X syndrome patients; conditions: 12 weeks; from ˜50%; cited from earlier work
[4] = tested on: polyglutamine induced cell death; conditions: McCampbell, 2001; cited from earlier work
[5] = tested on: Silenced MeCP2 in mouse neurons; parameters: key: ↑: increased; ↓: decreased; conditions: Ma, 2015; cited from earlier work
16 month old mice = conditions: Peleg, 2010; cited from earlier work
R6/2 HD mice = conditions: cited from earlier work
Rats = conditions: 30 days, diet with 28.5% of total calories supplied by Triacetin; cited from earlier work
animals = conditions: cited from earlier work
[6] = tested on: adult offspring of Low LG maternal care; conditions: Weaver et al., 2004; cited from earlier work
MeCP2 KO mice = tested on: MeCP2 KO mice; parameters: key: ↑: increased; ↓: decreased; conditions: Park, 2014; cited from earlier work
[7] = tested on: MeCP2-mutated human fibroblasts; assay: Tubastatin A in MeCP2-mutated human fibroblasts; conditions: 1 μM versus 5 mM butyrate
[8] = tested on: MeCP2-mutated human fibroblasts; conditions: Gold, 2015; cited from earlier work
[9] = tested on: ectopically methylated DNA; conditions: cells harvested 48 hours after treatment; cited from earlier work
HDAC = conditions: Ookubo, 2013; cited from earlier work
histones = conditions: radiolabeled acetate; cited from earlier work
cultured colon cells = conditions: Mariadason, 2000; cited from earlier work
MeCP2^tm1HzO mice = tested on: MeCP2^tm1HzO mice; parameters: key: ↑: increased; ↓: decreased; conditions: Ben-Zeev, 2011, cited from earlier work
MecP2-null mice = tested on: MecP2-null mice; parameters: key to Lifespan / Normal breathing / Motor function: ↑: increased; ↓: decreased; conditions: 2009, cited from earlier work

In the case of `Nc1ncn([C@H]2C[C@H](O)[C@@H](CO)O2)c(=O)n1` [5-azadC, 5-aza-2′-deoxycytidine], the “number of cells that lost their X-inactivation” value (X-inactivation; Xist on) is listed as 19 × as many compared to controls, the “number of cells that lost their X-inactivation” value (X-inactivation; combined with Xist deletion) is listed as 30 × as many compared to controls and the “FMR1 mRNA relative to normal control cells” value (FMR1 mRNA) is listed as “approximately 20%”.

In the case of `O=c1cc(-c2ccccc2)oc2c(O)c(O)ccc12` [7,8-dihydroxyflavone], the Lifespan (MeCP2^tm1.1Jae mice; Johnson, 2011) is given as “↑ Lifespan, ↑ Normal breathing,”, the Motor function (MeCP2^tm1.1Jae mice; Johnson, 2011) is given as “↑ Motor function” and the Normal breathing (MeCP2^tm1.1Jae mice; Johnson, 2011) is given as “↑ Lifespan, ↑ Normal breathing,”.

For `CC(=O)O[C@H](CC(=O)[O-])C[N+](C)(C)C` [Acetyl-L-Carnitine], the “Histone acetylation (mechanism)” value (histone acetylation) is given as “Increases Acetyl-CoA”, the Motor function (MeCP2^1lox mice; Nag, 2007) is given as “↑ Motor function” and the Forepaw grip strength (MeCP2^1lox mice) is given as “↑ Forepaw grip strength,”.

For `O=C(O)C(Cl)Cl` [DCA, dichloroacetate], the monthly blood tests (Non-Hodgkin's Lymphoma) is given as “normal”, the “fraction metabolized to carbon dioxide” value [1] is given as “up to 50%” and the “toxicity of prolonged exposure” value [2] is given as “peripheral neuropathy”.

For `CNCCCN1c2ccccc2CCc2ccccc21` [Desipramine], the TH expressing neurons (MeCP2^tm1.1Bird mice; Roux, 2007, Szczesna, 2014) is given as “↑” and the Apneas (MeCP2^tm1.1Bird mice; Roux, 2007) is given as “↓”.

In the case of `CNC1(c2ccccc2Cl)CCCCC1=O` (stereo not shown) [Ketamine], the “PPI of the ASR (cognitive function)” value (MeCP2^tm1.1Jae mice; Kron, 2012) is given as “Improved PPI of the ASR (cognitive” and the “Histone acetylation (mechanism)” value (histone acetylation) is given as “HDACi activity in the Nucleus”.

For `C[N+](C)(C)C[C@H](O)CC(=O)[O-]` [L-Carnitine], the “Hand Apraxia Scale assessment” value (Human females; Ellaway, 1999) is listed as “no effect on Hand Apraxia Scale”, the “Patient Well Being Index” value (Human females; Ellaway, 1999) is listed as “Improved Patient Well Being Index,” and the “Histone acetylation (mechanism)” value (histone acetylation) is listed as “Increases Acetyl-CoA”.

In the case of `N[C@@H](Cc1ccc(O)c(O)c1)C(=O)O` [Levodopa], the TH expressing neurons (MeCP2^tm1.1Bird mice; Roux, 2007, Szczesna, 2014) is given as “↑ TH expressing neurons”, the Hind-limb clasping (MeCP2^tm1.1Bird mice; Szczesna, 2014) is given as “↓” and the Lifespan (MeCP2^tm1.1Bird mice; Szczesna, 2014) is given as “↑”. The Motor function (MeCP2^tm1.1Bird mice; Szczesna, 2014) was “↑”, the Tremor (MeCP2^tm1.1Bird mice; Szczesna, 2014) was “↓” and the “Histone acetylation (mechanism)” value (histone acetylation) was “Histone acetylation,”.

For `CC[C@H](C)C(=O)O[C@H]1C[C@@H](C)C=C2C=C[C@H](C)[C@H](CC[C@@H]3C[C@@H](O)CC(=O)O3)[C@H]21` [Lovastatin], the “Aberrant Behavior Checklist score” value [3] is given as about 30%.

For `O=C(O)CCCc1ccccc1` [PBA, phenylbutyric acid], the “ability to reduce cell death” value [4] is listed as “reduction in cell death” and the “expression of AR [the mutant protein]” value [4] is listed as “slightly increased”.

In the case of `CCCC(C)C1(CC)C(=O)NC(=O)NC1=O` (stereo not shown) [Pentobarbatol], the “Synaptic transmission (calcium spikes)” value [5] is listed as “↑Synaptic transmission (calcium” and the dendrite growth [5] is listed as “↑ dendrite growth,”.

For `O=C(CCCCCCC(=O)Nc1ccccc1)NO` [SAHA, Vorinostat], the memory (16 month old mice) is given as “improves”, the “ability to reduce cell death” value [4] is given as “comparable to TSA” and the “expression of AR [the mutant protein]” value [4] is given as “slightly increased”. For the same molecule, the Motor function (R6/2 HD mice; added to drinking water) was “marked improvement”, the blood-brain barrier crossing (R6/2 HD mice; mouse, in vivo) was “crosses the blood-brain barrier” and the “histone acetylation in the brain” value (R6/2 HD mice; mouse, in vivo) was “increases”.

For `O=C1CCc2c(ccc3ccccc23)O1` [Splitomycin], the “FMR1 mRNA relative to normal control cells” value (FMR1 mRNA) is listed as “approximately 20%”.

In the case of `CC1(C)O[C@@H]2[C@@H](CO[C@@]3(COS(N)(=O)=O)OC(C)(C)O[C@@H]23)O1` [Topiramate], the Apneias (Human females) is listed as “↓ Apneias” and the “Histone acetylation (mechanism)” value (histone acetylation) is listed as “HDACi”.

For `CC(=O)OCC(COC(C)=O)OC(C)=O` [Triacetin, glycerin triacetate], the signs of toxicity (Rats) is given as “No overt signs of toxicity”, the metabolism (animals; CIREP, 2003) is given as “quickly metabolized into glycerol and acetic acid” and the “toxicity in acute oral or dermal exposures” value (animals; CIREP, 2003) is given as “not toxic”. The “tolerated triacetin as a percentage of total diet” value (animals; replacing conventional carbohydrates, Shapira, 1968) was “up to 20%”.

In the case of `CC(/C=C/C(=O)NO)=C\[C@@H](C)C(=O)c1ccc(N(C)C)cc1` [Trichostatin A], the “X-inactivation of the cells” value (X-inactivation; even if Xist was turned off) is given as “no change”, the “ability to reduce cell death” value [4] is given as “reduce cell death” and the “expression of AR [the mutant protein]” value [4] is given as “slightly increased”. The acetylation [6] was “increased”, the “glucocorticoid receptor gene activation” value [6] was “to levels indistinguishable from adult offspring of High LG maternal care” and the methylation [6] was “reduced”. The stress response [6] was “reduced”.

For `CCCCCCC(=O)OCC(COC(=O)CCCCCC)OC(=O)CCCCCC` [Triheptanoin], the Lifespan (MeCP2 KO mice) is listed as “↑ Lifespan, ↑ Social interaction,”, the Motor function (MeCP2 KO mice) is listed as “↑ Motor function” and the Social interaction (MeCP2 KO mice) is listed as “↑ Lifespan, ↑ Social interaction,”. The “Histone acetylation (mechanism)” value (histone acetylation) was “Metabolizes to Acetyl-CoA”.

In the case of `CN1CCc2c(c3ccccc3n2Cc2ccc(C(=O)NO)cc2)C1` [Tubastatin A], the “HDACi activity relative to butyrate” value [7] is given as 5000 times, the “concentration at which it is a specific HDACi inhibitor (as low as)” value [8] is given as 1 µM and the mictotubules depolymerization [8] is given as “Protects mictotubules from”. For the same molecule, the “Histone acetylation (mechanism)” value (histone acetylation) was “HDACi”.

In the case of `CCCC(CCC)C(=O)O` [Valproic acid], the Motility (MeCP2^tm1.1Jae mice; Guo, 2014) is listed as “↑ Motility,”, the “gene expression in brain” value (MeCP2^tm1.1Jae mice; Guo, 2014) is listed as “Normalized gene expression in brain” and the neurological symptoms (MeCP2^tm1.1Jae mice; Guo, 2014) is listed as “Improved neurological symptoms,”. The “demethylation of ectopically methylated DNA” value [9] was “stimulates active demethylation”, the “Histone acetylation (mechanism)” value (histone acetylation) was “HDACi” and the HDAC inhibitor activity (HDAC) was “HDAC inhibitors”.

For `CC(=O)O` [acetate], the “time for histones to become significantly acetylated” value (histones) is listed as at most 15 min.

For `NC(=O)N1c2ccccc2C=Cc2ccccc21` [carbamazepine], the HDAC inhibitor activity (HDAC) is listed as “HDAC inhibitors”.

In the case of `CN(C)CCCN1c2ccccc2CCc2ccc(Cl)cc21` [clomipramine], the HDAC inhibitor activity (HDAC) is listed as “HDAC inhibitors”.

In the case of `CNCC[C@H](Oc1cccc2ccccc12)c1cccs1` [duloxetine], the HDAC inhibitor activity (HDAC) is given as “HDAC inhibitors”.

For `Nc1nnc(-c2cccc(Cl)c2Cl)c(N)n1` [lamotrigine], the HDAC inhibitor activity (HDAC) is listed as “HDAC inhibitors”.

For `CC[C@@H](C(N)=O)N1CCCC1=O` [levetriacetam], the HDAC inhibitor activity (HDAC) is given as “HDAC inhibitors”.

For `[Cl-].[Li+]` [lithium chloride], the HDAC inhibitor activity (HDAC) is listed as “HDAC inhibitors”.

For `NC(=O)N1c2ccccc2CC(=O)c2ccccc21` [oxcarbazepine], the HDAC inhibitor activity (HDAC) is listed as “HDAC inhibitors”.

For `CCCC(=O)[O-].[Na+]` [sodium butyrate], the “ability to reduce cell death” value [4] is given as “reduction in cell death”, the “expression of AR [the mutant protein]” value [4] is given as “slightly increased” and the “number of genes modified relative to TSA” value (cultured colon cells) is given as “roughly 10 times”.

In the case of Glatiramer acetate, the “Histone acetylation (mechanism)” value (histone acetylation) is listed as “Contains acetate”, the BDNF (MeCP2^tm1HzO mice) is listed as “↑ BDNF” and the BDNF (MeCP2^tm1HzO mice; text) is listed as “increase”.

For IGF-1: Insulin-like Growth Factor 1, the “9 separate measures of RTT symptoms in mice” value (MecP2-null mice; MeCP2 mutant mice, Tropea) is listed as “partially rescued”, the Lifespan (MecP2-null mice; Trpoea) is listed as “↑ Lifespan, ↑ Normal breathing,” and the Motor function (MecP2-null mice; Trpoea) is listed as “↑ Motor function”. For the same molecule, the Normal breathing (MecP2-null mice; Trpoea) was “↑ Lifespan, ↑ Normal breathing,”, the Apneias (Human females) was “↓ Apneias” and the “Histone acetylation (mechanism)” value (histone acetylation) was “Increases H3, H4 Histone”.

B1: Exogenous BDNF: Brain Derived Neurotrophic Factor protein, given exogenously (protein, UniProt P23560 129-247, looked up)
Neurotrophic factor BDNF: HSDPARRGELSVCDSISEWVTAADKKTAVDMSGGTVTVLEKVPVSKGQLKQYFYETKCNPMGYTKEGCRGIDKRHWNSQCRTTQSYVRALTMDSKKRIGWRFIRIDTSCVCTLTIKRGR
modifications: Neurotrophic factor BDNF
In the case of B1, the “synaptic function in brainstem slices” value (MeCP2^tm1.1Jae mice; Kline, 2010, listed as exogenous BDNF) is listed as “normalize”.
